Assay results published in paper PMC6539525, “Design, Synthesis, and Mechanism of Dihydroartemisinin–Coumarin Hybrids as Potential Anti-Neuroinflammatory Agents” (Molecules, 2019).
Where two headings read alike, the source gives them in different places.

Legend:
MDA-MB-231 cells = assay: MTT cytotoxicity in MDA-MB-231 cells; type: cell-based; settings: Homo sapiens
Experimental: (§1) As the anti-neuroinflammatory agents for cancer patients, all newly synthesized compounds were evaluated in vitro for antitumor activity against human breast cancer cell line MDA-MB-231, colorectal cancer cells HT-29 and HCT-116, and lung cancer cell line A549 by using the standard MTT method, respectively. Doxorubicin (DOX) and DHA were used as the reference standard. Additionally, owing to the rapid proliferation, the tumor cells actually was always in hypoxia condition. Therefore, the in vitro cytotoxicity was evaluated in two different conditions (hypoxia and normoxia).
(§2) After recovery, the cells were cultured in 96-well plates for 24 h at 37 °C in a humidified atmosphere with 95% air and 5% CO2. After treated with different tested compounds, the hypoxia groups were placed in a sealed hypoxia incubator chamber (Stemcell Technologies, Inc., Vancouver, BC, Canada) filled with 5% CO2 and 95% N2 for 24 h, and then transferred to the incubator chamber filled with air for 72 h. On the contrary, the normoxia groups were cultured under air condition for 96h.
(§3) Cancer cells HT-29 (Human Colorectal Adenocarcinoma cell line), MDA-MB-231 (Human Breast Cancer cell line), HCT-116 (Human Colorectal Carcinoma cell line), and A549 (Human Lung Adenocarcinomic cell line) were from ATCC.
(§4) When the adherent cells reached 80% confluence, the culture medium was discarded. The cells were digested by trypsin and collected after centrifugation. The fresh culture medium was gently blown into it to form single-cell suspension. Cell suspension will be diluted to 1.5–3 × 10^4 cells/mL. Each hole of 96-well plates was added 100 μL cell suspension and incubated for 24 h (5% CO2; 37 °C). Then the holes were added different concentrations of tested compounds. The early screening concentration is set to 100 μM, 50 μM, 25 μM, 12.5 μM, and 6.25 μM. Three replicates were made for each concentration of the tested compounds. After the cells were grown for 96h, 20 μL MTT (5 mg/mL) was added to each well and incubated for 4 h. The medium was discarded and each well was added 100 μL DMSO to dissolve the formazan blue. Absorbance was measured at 570 nm with a microplate reader (Synergy-HT, BioTek Instruments, Winooski, VT, USA).
(§5) Hypoxia condition: The cells were treated with different concentration of tested compounds, placed in hypoxia chamber (Catalog Number 27310, Stemcell Technologies, Inc., Vancouver, BC, Canada), and incubated for 24 h ([…]; 37 °C). Then the cells were placed in normoxia condition (5% CO2; 37 °C) and incubated for 72 h.

HT-29 cells = assay: MTT cytotoxicity in HT-29 cells; type: cell-based, Human; settings: Homo sapiens, MTT
Experimental: as §1
as §2, with “On the contrary, the normoxia groups were cultured under air condition for 96h.” left out
as §3
as §4, with “After the cells were grown for 96h, 20 μL MTT (5 mg/mL) was added to each well and incubated for 4 h.” left out, “USA). […]” for “USA).”

[1] = tested on: NO release of LPS-induced microglial N9 cells; assay: Inhibition of NO release in LPS-induced N9 cells (Griess); type: cell-based, murine; settings: Mus musculus, 1 μg/mL LPS for 48 h, NO level in medium
Experimental: (§6) The anti-neuroinflammatory activity of DCH was evaluated and then the representative compounds were selected for the further study. […] In addition, in order to exclude the death influence, MTT-IC20 of all the compounds were measured. […] The exact reason was still unclear, but we supposed that it might be related to the homeostasis of cells. The tumor cells actually were always in hypoxia condition, in which DCH could promote the cytotoxic activity against tumor cells. In brief, DCH could reduce the release of NO caused by LPS-induced microglial cells.
(§7) N9 cells, which were in the logarithmic phase, were incubated for 24 h by adherent culture. Subsequently, the medium was changed to new one without serum. The cells were treated with different concentration of tested compounds. After specific time in the LPS condition, the supernatants were collected and analyzed.
The nitrite levels in medium were determined by Griess reaction. The absorbance was measured at 540 nm using a microplate reader.

HCT-116 cells = assay: MTT cytotoxicity in HCT-116 cells; type: cell-based; settings: Homo sapiens
Experimental: as §1, §2, §3, §4, §5

[2] = MTT cytotoxicity in N9 cells; type: cell-based, murine; settings: mouse, N9 microglial cells, cytotoxic activity
Experimental: as §6, §4, §7

A549 cells = assay: MTT cytotoxicity in A549 cells; type: cell-based; settings: Homo sapiens
Experimental: as §1, §2, §3, §4, §5

[3] = MDA-MB-231, hypoxia 24 h then normoxia 72 h, read-out: IC50 MDA-MB-231 Hypoxia
[4] = MDA-MB-231, normoxia 96 h, read-out: IC50 MDA-MB-231 Normoxia
[5] = HT-29, hypoxia 24 h then normoxia 72 h, read-out: IC50 HT-29 Hypoxia
[6] = HT-29, normoxia 96 h, read-out: IC50 HT-29 Normoxia
[7] = HCT-116, hypoxia 24 h then normoxia 72 h, read-out: IC50 HCT-116 Hypoxia
[8] = HCT-116, normoxia 96 h, read-out: IC50 HCT-116 Normoxia
[9] = A549, hypoxia 24 h then normoxia 72 h, read-out: IC50 A549 Hypoxia
[10] = A549, normoxia 96 h, read-out: IC50 A549 Normoxia

Row | Compound | IC50 (MDA-MB-231 cells; [3]) | IC50 (MDA-MB-231 cells; [4]) | IC50 (HT-29 cells; [5]) | IC50 (HT-29 cells; [6]) | melting point | IC50 [1] | IC50 (HCT-116 cells; [7]) | IC50 (HCT-116 cells; [8]) | IC20 [2] | IC50 (A549 cells; [9]) | IC50 (A549 cells; [10])
1 | Cc1cc(C)c2oc(=O)cc(OCc3cn(CCO[C@H]4O[C@@H]5O[C@@]6(C)CC[C@H]7[C@H](C)CC[C@@H]([C@H]4C)[C@@]57OO6)nn3)c2c1 [5m] | 13 µM | 14.2 µM | 5.89 µM | 12.9 µM | 111 to 113 °C | 1.08 µM | 44.8 µM | 62.8 µM | 1.04 µM | 1.28 µM | 2.67 µM
2 | C[C@H]1[C@@H](OCCc2cn(Cc3cc4ccccc4oc3=O)nn2)O[C@@H]2O[C@@]3(C)CC[C@H]4[C@H](C)CC[C@@H]1[C@@]24OO3 [2a, 3-((4-(2-((10S)-dihydroartemisininoxy)ethyl)-1H-1,2,3-triazol-1-yl)-methyl)-2H-1-chromen-2-one] | > 100 µM | > 100 µM | 19.4 µM | > 100 µM | 143 to 145 °C | 0.97 µM | > 100 µM | > 100 µM | > 10 µM | > 100 µM | > 100 µM
3 | C[C@H]1[C@@H](OCc2cn(Cc3cc4cc(Br)cc(Br)c4oc3=O)nn2)O[C@@H]2O[C@@]3(C)CC[C@H]4[C@H](C)CC[C@@H]1[C@@]24OO3 [1e, 6,8-dibromo-3-((4-((10S)-dihydroartemisininoxy)methyl-1H-1,2,3-triazol-1-yl)-methyl)-2H-1-chromen-2-one] | 45.5 µM | 77.9 µM | 26.9 µM | 15.3 µM | 103 to 105 °C | 0.48 µM | > 100 µM | 54.5 µM | > 10 µM | 59.8 µM | > 100 µM
4 | C[C@H]1[C@@H](OCc2cn(Cc3cc4ccccc4oc3=O)nn2)O[C@@H]2O[C@@]3(C)CC[C@H]4[C@H](C)CC[C@@H]1[C@@]24OO3 [1a, 3-((4-((10S)-dihydroartemisininoxy)methyl-1H-1,2,3-triazol-1-yl)-methyl)-2H-1-chromen-2-one] | 30.5 µM | 65 µM | 14.3 µM | 18.4 µM | 73 to 75 °C | 1.46 µM | 49.8 µM | 48.9 µM | > 10 µM | 53.9 µM | 83.5 µM
5 | Cc1cccc2c(OCc3cn(CCCO[C@H]4O[C@@H]5O[C@@]6(C)CC[C@H]7[C@H](C)CC[C@@H]([C@H]4C)[C@@]57OO6)nn3)cc(=O)oc12 [6o] | 18.6 µM | 47.6 µM | 29 µM | 81.6 µM | 143 to 145 °C | 1.43 µM | 42.4 µM | 12.1 µM | > 10 µM | 39.9 µM | 78.1 µM
6 | C[C@H]1[C@@H](OCCc2cn(Cc3cc4cc(Cl)cc(Cl)c4oc3=O)nn2)O[C@@H]2O[C@@]3(C)CC[C@H]4[C@H](C)CC[C@@H]1[C@@]24OO3 [2d, 6,8-dichloro-3-((4-(2-((10S)-dihydroartemisininoxy)ethyl)-1H-1,2,3-triazol-1-yl)-methyl)-2H-1-chromen-2-one] | 47.9 µM | 88.5 µM | 30.8 µM | 19.5 µM | 101 to 103 °C | 1.35 µM | 46.5 µM | 53.2 µM | > 10 µM | 69.7 µM | 96.5 µM
7 | Cc1cccc2c(OCc3cn(CCO[C@H]4O[C@@H]5O[C@@]6(C)CC[C@H]7[C@H](C)CC[C@@H]([C@H]4C)[C@@]57OO6)nn3)cc(=O)oc12 [5o] | 16.5 µM | 37.4 µM | 21.2 µM | 16.1 µM | 84 to 86 °C | 0.57 µM | 38.5 µM | 29.7 µM | > 10 µM | 45.1 µM | 50.4 µM
8 | C[C@H]1[C@@H](OCCCn2cc(COc3cc(=O)oc4ccccc34)nn2)O[C@@H]2O[C@@]3(C)CC[C@H]4[C@H](C)CC[C@@H]1[C@@]24OO3 [6j] | 33.4 µM | 67.4 µM | 7.42 µM | 10.5 µM | 74 to 76 °C | 0.29 µM | 32.8 µM | 25.9 µM | > 10 µM | 49 µM | 53.4 µM
9 | Cc1cc(C)c2c(OCc3cn(CCO[C@H]4O[C@@H]5O[C@@]6(C)CC[C@H]7[C@H](C)CC[C@@H]([C@H]4C)[C@@]57OO6)nn3)cc(=O)oc2c1 [5l] | > 100 µM | > 100 µM | 3.76 µM | 2.78 µM | 111 to 113 °C | 3.36 µM | > 100 µM | > 100 µM | 7.13 µM | > 100 µM | > 100 µM
10 | C[C@H]1[C@@H](OCc2cn(Cc3cc4cc(Br)ccc4oc3=O)nn2)O[C@@H]2O[C@@]3(C)CC[C@H]4[C@H](C)CC[C@@H]1[C@@]24OO3 [1b, 6-bromo-3-((4-((10S)-dihydroartemisininoxy)methyl-1H-1,2,3-triazol-1-yl)-methyl)-2H-1-chromen-2-one] | > 100 µM | > 100 µM | 13.1 µM | 21.4 µM | 78 to 80 °C | > 10 µM | > 100 µM | > 100 µM | > 10 µM | > 100 µM | > 100 µM
11 | Cc1cc(C)c2oc(=O)cc(OCc3cn(CCCO[C@H]4O[C@@H]5O[C@@]6(C)CC[C@H]7[C@H](C)CC[C@@H]([C@H]4C)[C@@]57OO6)nn3)c2c1 [6m] | 18.7 µM | 24.6 µM | 5.9 µM | 22.4 µM | 90 to 92 °C | 5.8 µM | 93.5 µM | 42.1 µM | > 10 µM | 20.1 µM | 27.9 µM
12 | C[C@H]1[C@@H](OCc2cn(Cc3cc4cc(Cl)cc(Cl)c4oc3=O)nn2)O[C@@H]2O[C@@]3(C)CC[C@H]4[C@H](C)CC[C@@H]1[C@@]24OO3 [1d, 6,8-dichloro-3-((4-((10S)-dihydroartemisininoxy)methyl-1H-1,2,3-triazol-1-yl)-methyl)-2H-1-chromen-2-one] | 33.9 µM | 68.9 µM | 13.3 µM | 14.9 µM | 113 to 115 °C | 1.6 µM | 48.6 µM | 60 µM | > 10 µM | 45.4 µM | 53.3 µM
